Data reported in ChEMBL document CHEMBL1811900, “Sesquiterpene glycosides from Cosmospora joca” (J Nat Prod, 2011).
Active and inactive are the calls of the source. The calls are words filed in the database; no cut-off is given here.

Legend:
[1] = tested on: RAW264.7; assay: Antiinflammatory activity in mouse RAW264.7 cells assessed as inhibition of LPS-stimulated NO production at 100 uM after 24 hrs by spectrophotometry; type: functional
[2] = tested on: RAW264.7; assay: Antiinflammatory activity in mouse RAW264.7 cells assessed as inhibition of LPS-stimulated NO production at 0.1 to 100 uM after 24 hrs by spectrophotometry; type: functional, cell-based
[3] = tested on: RAW264.7; assay: Cytotoxicity against mouse RAW264.7 cells by Alamar blue assay; type: cell-based

| SMILES | inhibition [1] | Imax [1] | other results |
| --- | --- | --- | --- |
| CCCCC/C=C\CCC(=O)O[C@@H]1[C@H](O[C@@H](C[C@H](OC(C)=O)/C(C)=C/CO[C@@H]([C@H](O)[C@H](O)CO)[C@H](O)CO)[C@](C)(O)CCC=C(C)C)O[C@H](CO)[C@@H](O)[C@@H]1O | Active |  |  |
| CCCCCCCCCC(=O)O[C@@H]1[C@H](O[C@@H](C[C@H](OC(C)=O)/C(C)=C/CO[C@@H]([C@H](O)[C@H](O)CO)[C@H](O)CO)[C@](C)(O)CCC=C(C)C)O[C@H](CO)[C@@H](O)[C@@H]1O [COSMOSPORASIDE D] |  | 71.7% | inhibition [2]: Dose-dependent effect; IC50 ([2]; RAW264.7, 24 h): 66 µM |
| CC(=O)OC(CC(=O)C(C)CCC=C(C)C)/C(C)=C/CO[C@@H]([C@H](O)[C@H](O)CO)[C@H](O)CO (stereo partly drawn) | Active |  |  |
| CC(=O)O[C@@H](C[C@H](O[C@@H]1O[C@H](CO)[C@@H](O)[C@H](O)[C@@H]1O)[C@](C)(O)CCC=C(C)C)/C(C)=C/CO[C@@H]([C@H](O)[C@H](O)CO)[C@H](O)COCC=C(C)C | inactive |  |  |
| CC(C)=CCC/C(C)=C/CC/C(C)=C/CO[C@@H]([C@H](O)[C@H](O)CO)[C@H](O)CO [COSMOSPORASIDE A] |  | 54.52% | Activity [3]: Toxic |
